From article PMC10684410 (Clinical Pharmacokinetics, 2023)

Tests used:
[1] = Plasma paroxetine concentrations in the DDI study; assay type: in vivo, human (healthy subjects)
[2] = cited from earlier work
TAAR1 = details: in vitro receptor binding studies; result in words; cited from earlier work
[3] = 25 mg ulotaront + 20 mg QD paroxetine vs ulotaront alone, result in words

SMILES | AUC ([1]; human, plasma, oral, 20 mg) [ng·h/mL] | Cmax ([1]; human, plasma, oral, 20 mg) [ng/mL] | mean plasma trough concentration at steady-state ([1]; paroxetine 20 mg once daily from Day 5, Day 11) [ng/mL] | metabolite abundance in humans ([2]; minor metabolite in humans) | effective half-life for the metabolite ([2]; ref unpublished data) | binding to TAAR1 (TAAR1) | increase of SEP-363854 AUC∞ by coadministration of paroxetine (25 mg ulotaront + 20 mg QD paroxetine vs ulotaront alone) [%] | effect of paroxetine on SEP-363854 Cmax [3] | effect of paroxetine on SEP-363854 tmax [3] | effect of paroxetine on SEP-363854 to ulotaront AUClast ratio [3] | mean SEP-363854 to ulotaront AUClast ratio (with or without paroxetine coadministration)
Fc1ccc([C@@H]2CCNC[C@H]2COc2ccc3c(c2)OCO3)cc1 [Paroxetine] | 647 | 37.3 | 19.3 |  |  |  |  |  |  |  | 
NCC1OCCc2ccsc21 (centres unmarked) [SEP-363854] |  |  |  | < 2 % of total | approximately 6 h | does bind to TAAR1 | 32 | no effect | no effect | no effect | about 0.02
